Laboratory results as given in US7662832B2, “Pyrrolo[2,3-c]pyridine derivatives and processes for the preparation thereof” (priority 2004, dated 2010).
pIC50: −log10 of the molar value. Counter-ions that a name gives are not always drawn.

These compounds were tested against Proton Pump (H^+/K^+-ATPase) (Sus scrofa, UniProt P19156) (assay: Inhibitory effects on proton pump (H^+/K^+-ATPase) activity). Settings: hog gastric vesicles; K^+ stimulated H^+/K^+-ATPase activity; 30 minutes at 37° C.
Assay type: biochemical

Chain of Proton Pump (H^+/K^+-ATPase) (P19156 2-1034 limits assumed): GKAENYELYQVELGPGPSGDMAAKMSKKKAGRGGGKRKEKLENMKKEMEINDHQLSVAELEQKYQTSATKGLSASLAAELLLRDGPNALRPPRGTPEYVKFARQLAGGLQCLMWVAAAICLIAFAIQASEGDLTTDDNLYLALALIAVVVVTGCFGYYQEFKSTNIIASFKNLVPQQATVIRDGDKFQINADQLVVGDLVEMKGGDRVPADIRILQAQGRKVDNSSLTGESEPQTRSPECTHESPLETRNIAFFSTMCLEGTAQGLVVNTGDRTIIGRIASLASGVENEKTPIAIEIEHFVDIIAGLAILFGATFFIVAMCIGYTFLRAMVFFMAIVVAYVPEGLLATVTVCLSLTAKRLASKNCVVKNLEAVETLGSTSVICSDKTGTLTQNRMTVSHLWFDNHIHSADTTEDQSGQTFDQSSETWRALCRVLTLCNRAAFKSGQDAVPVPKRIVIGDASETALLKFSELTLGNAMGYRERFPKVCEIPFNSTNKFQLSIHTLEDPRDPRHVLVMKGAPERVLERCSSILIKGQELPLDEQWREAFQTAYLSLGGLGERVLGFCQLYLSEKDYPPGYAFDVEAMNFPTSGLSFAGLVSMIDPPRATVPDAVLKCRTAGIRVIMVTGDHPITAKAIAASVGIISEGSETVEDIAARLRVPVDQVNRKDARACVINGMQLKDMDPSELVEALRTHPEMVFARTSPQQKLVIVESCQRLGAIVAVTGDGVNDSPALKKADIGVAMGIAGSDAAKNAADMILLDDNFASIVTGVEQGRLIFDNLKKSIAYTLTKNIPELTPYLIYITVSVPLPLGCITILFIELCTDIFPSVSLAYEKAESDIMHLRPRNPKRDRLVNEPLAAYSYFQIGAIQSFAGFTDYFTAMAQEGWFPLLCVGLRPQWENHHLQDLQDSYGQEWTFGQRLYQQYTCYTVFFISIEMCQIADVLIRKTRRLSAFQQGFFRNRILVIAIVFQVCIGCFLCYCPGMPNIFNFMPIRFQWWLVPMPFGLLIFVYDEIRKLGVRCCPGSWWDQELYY
Chain of Proton Pump (H^+/K^+-ATPase) (P18434 whole entry partner): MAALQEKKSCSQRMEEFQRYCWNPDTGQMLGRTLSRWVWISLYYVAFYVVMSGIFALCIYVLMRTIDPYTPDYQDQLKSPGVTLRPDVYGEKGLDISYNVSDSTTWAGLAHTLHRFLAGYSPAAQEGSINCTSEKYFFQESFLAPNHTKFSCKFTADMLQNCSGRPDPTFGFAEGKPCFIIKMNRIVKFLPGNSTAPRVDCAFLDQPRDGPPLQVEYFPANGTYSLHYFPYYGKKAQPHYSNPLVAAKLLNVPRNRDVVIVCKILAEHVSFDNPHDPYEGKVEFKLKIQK

Row | Structure (SMILES) | pIC50
1 | C=CCn1c(C)c(C)c2ccnc(COc3ccc(F)cc3)c21 [Example 2, 1-allyl-7-(4-fluorophenoxymethyl)-2,3-dimethyl-1H-pyrrolo[2,3-c]pyridine hydrochloride] | 6.39
2 | Cc1c(C)n(Cc2ccccc2)c2c(COc3ccc(F)cc3)nccc12 [Example 3, 1-benzyl-7-(4-fluorophenoxymethyl)-2,3-dimethyl-1H-pyrrolo[2,3-c]pyridine hydrochloride] | 7.24
3 | COc1cccc(Cn2c(C)c(C)c3ccnc(COc4ccc(F)cc4)c32)c1 [Example 4, 7-(4-fluorophenoxymethyl)-1-(3-methoxybenzyl)-2,3-dimethyl-1H-pyrrolo[2,3-c]pyridine hydrochloride] | 6.82
4 | Cc1ccc(Cn2c(C)c(C)c3ccnc(COc4ccc(F)cc4)c32)cc1 [Example 5, 7-(4-fluorophenoxymethyl)-2,3-dimethyl-1-(4-methylbenzyl)-1H-pyrrolo[2,3-c]pyridine hydrochloride] | 6.35
5 | Cc1c(C)n(CC2CC2)c2c(COc3ccc(F)cc3)nccc12 [Example 7, 1-cyclopropylmethyl-7-(4-fluorophenoxymethyl)-2,3-dimethyl-1H-pyrrolo[2,3-c]pyridine hydrochloride] | 6.42
6 | Cc1ccc(OCc2nccc3c(C)c(C)n(Cc4ccccc4)c23)cc1 [Example 15, 1-benzyl-2,3-dimethyl-7-(p-tolyloxymethyl)-1H-pyrrolo[2,3-c]pyridine hydrochloride] | 6.85
7 | COc1cccc(Cn2c(C)c(C)c3ccnc(COc4ccc(C)cc4)c32)c1 [Example 16, 1-(3-methoxybenzyl)-2,3-dimethyl-7-(p-tolyloxymethyl)-1H-pyrrolo[2,3-c]pyridine hydrochloride] | 6.74
8 | Cc1ccc(Cn2c(C)c(C)c3ccnc(COc4ccc(C)cc4)c32)cc1 [Example 17, 2,3-dimethyl-1-(4-methylbenzyl)-7-(p-tolyloxymethyl)-1H-pyrrolo[2,3-c]pyridine hydrochloride] | 6.37
9 | COCCn1c(C)c(C)c2ccnc(COc3ccc(F)cc3F)c21 [Example 34, 7-(2,4-difluorophenoxymethyl)-1-(2-methoxyethyl)-2,3-dimethyl-1H-pyrrolo[2,3-c]pyridine hydrochloride] | 5.84
10 | Cc1c(C)n(CC2CC2)c2c(COc3ccc(F)cc3F)nccc12 [Example 35, 1-cyclopropylmethyl-7-(2,4-difluorophenoxymethyl)-2,3-dimethyl-1H-pyrrolo[2,3-c]pyridine hydrochloride] | 6.07
11 | Cc1c(C)n(Cc2ccccc2)c2c(COc3ccc(Cl)cc3)nccc12 [Example 43, 1-benzyl-7-(4-chlorophenoxymethyl)-2,3-dimethyl-1H-pyrrolo[2,3-c]pyridine hydrochloride] | 6.89
12 | COc1cccc(Cn2c(C)c(C)c3ccnc(COc4ccc(Cl)cc4)c32)c1 [Example 45, 7-(4-chlorophenoxymethyl)-1-(3-methoxybenzyl)-2,3-dimethyl-1H-pyrrolo[2,3-c]pyridine hydrochloride] | 7.15
13 | COc1cccc(Cn2c(C)c(C)c3ccnc(COc4ccc(C)cc4C)c32)c1 [Example 68, 1-(3-methoxybenzyl)-2,3-dimethyl-7-(2,4-dimethylphenoxymethyl)-1H-pyrrolo[2,3-c]pyridine hydrochloride] | 6.67
14 | Cc1c(C)n(Cc2ccccc2)c2c(CNc3ccc(F)cc3)nccc12 [Example 89, N-(1-benzyl-2,3-dimethyl-1H-pyrrolo[2,3-c]pyridin-7-ylmethyl)-4-fluorophenylamine hydrochloride] | 6.49
15 | Cc1c(C)n(Cc2cccc(F)c2)c2c(CNc3ccc(F)cc3)nccc12 [Example 91, N-[1-(3-fluorobenzyl)-2,3-dimethyl-1H-pyrrolo[2,3-c]pyridin-7-ylmethyl]-4-fluorophenylamine hydrochloride] | 6.68
16 | CC=Cn1c(C)c(C)c2ccnc(CNc3ccc(F)cc3)c21 [Example 108, N-(2,3-dimethyl-1-propenyl-1H-pyrrolo[2,3-c]pyridin-7-ylmethyl)-4-fluorophenylamine hydrochloride] | 6.37
17 | Cc1c(C)n(Cc2ccccc2)c2c(CN(C)c3ccc(F)cc3)nccc12 [Example 111, N-(1-benzyl-2,3-dimethyl-1H-pyrrolo[2,3-c]pyridin-7-ylmethyl)-N-(4-fluorophenyl)-methylamine hydrochloride] | 7.60
18 | Cc1c(C)n(CC2CC2)c2c(CN(C)c3ccc(F)cc3)nccc12 [Example 112, N-(1-cyclopropylmethyl-2,3-dimethyl-1H-pyrrolo[2,3-c]pyridin-7-ylmethyl)-N-(4-fluorophenyl)-methylamine hydrochloride] | 6.82
19 | Cc1c(C)n(Cc2ccc(Cl)cc2)c2c(CN(C)c3ccc(F)cc3)nccc12 [Example 113, N-[1-(4-chlorobenzyl)-2,3-dimethyl-1H-pyrrolo[2,3-c]pyridin-7-ylmethyl]-N-(4-fluorophenyl)-methylamine hydrochloride] | 6.49

Row | Structure (SMILES) | pIC50
20 | Cc1c(C)n(Cc2cccc(F)c2)c2c(CN(C)c3ccc(F)cc3)nccc12 [Example 114, N-[1-(3-fluorobenzyl)-2,3-dimethyl-1H-pyrrolo[2,3-c]pyridin-7-ylmethyl]-N-(4-fluorophenyl)-methylamine hydrochloride] | 7.57
21 | Cc1c(C)n(Cc2ccccc2F)c2c(CN(C)c3ccc(F)cc3)nccc12 [Example 115, N-[1-(2-fluorobenzyl)-2,3-dimethyl-1H-pyrrolo[2,3-c]pyridin-7-ylmethyl]-N-(4-fluorophenyl)-methylamine hydrochloride] | 6.85
22 | COc1cccc(Cn2c(C)c(C)c3ccnc(CN(C)c4ccc(F)cc4)c32)c1 [Example 116, N-(4-fluorophenyl)-N-[1-(3-methoxybenzyl)-2,3-dimethyl-1H-pyrrolo[2,3-c]pyridin-7-ylmethyl]-methylamine hydrochloride] | 7.32
23 | Cc1ccc(Cn2c(C)c(C)c3ccnc(CN(C)c4ccc(F)cc4)c32)cc1 [Example 117, N-[2,3-dimethyl-1-(4-methylbenzyl)-1H-pyrrolo[2,3-c]pyridin-7-ylmethyl]-N-(4-fluorophenyl)-methylamine hydrochloride] | 7.34
24 | Cc1c(C)n(Cc2ccc(F)cc2)c2c(CN(C)c3ccc(F)cc3)nccc12 [Example 118, N-[1-(4-fluorobenzyl)-2,3-dimethyl-1H-pyrrolo[2,3-c]pyridin-7-ylmethyl]-N-(4-fluorophenyl)-methylamine hydrochloride] | 6.48
25 | CC(C)=CCn1c(C)c(C)c2ccnc(CN(C)c3ccc(F)cc3)c21 [Example 119, N-[2,3-dimethyl-1-(3-methylbut-2-enyl)-1H-pyrrolo[2,3-c]pyridin-7-ylmethyl]-N-(4-fluorophenyl)-methylamine hydrochloride] | 6.39
26 | COCCn1c(C)c(C)c2ccnc(CN(C)c3ccc(F)cc3)c21 [Example 120, N-(4-fluorophenyl)-N-[1-(2-methoxyethyl)-2,3-dimethyl-1H-pyrrolo[2,3-c]pyridin-7-ylmethyl]-methylamine hydrochloride] | 6.35
27 | Cc1cccc(Cn2c(C)c(C)c3ccnc(CN(C)c4ccc(F)cc4)c32)c1 [Example 126, N-[2,3-dimethyl-1-(3-methylbenzyl)-1H-pyrrolo[2,3-c]pyridin-7-ylmethyl]-N-(4-fluorophenyl)-methylamine hydrochloride] | 6.40
28 | C=CCn1c(C)c(C)c2ccnc(N(C)Cc3ccc(F)cc3)c21 [Example 140, 1-allyl-7-[N-(4-fluorobenzyl)-N-methyl]amino-2,3-dimethyl-1H-pyrrolo[2,3-c]pyridine hydrochloride] | 6.62
29 | COCCn1c(C)c(C)c2ccnc(N(C)Cc3ccc(F)cc3)c21 [Example 143, 7-[N-(4-fluorobenzyl)-N-methyl]amino-1-(2-methoxyethyl)-2,3-dimethyl-1H-pyrrolo[2,3-c]pyridine hydrochloride] | 6.52
30 | Cc1c(C)n(CC2CC2)c2c(N(C)Cc3ccc(F)cc3)nccc12 [Example 144, 1-cyclopropylmethyl-7-[N-(4-fluorobenzyl)-N-methyl]amino-2,3-dimethyl-1H-pyrrolo[2,3-c]pyridine hydrochloride] | 6.70
31 | Cc1c(C)n(Cc2ccccc2F)c2c(N(C)Cc3ccc(F)cc3)nccc12 [Example 147, 1-(2-fluorobenzyl)-7-[N-(4-fluorobenzyl)-N-methyl]amino-2,3-dimethyl-1H-pyrrolo[2,3-c]-pyridine hydrochloride] | 6.70
32 | Cc1c(C)n(CC(C)C)c2c(N(C)Cc3ccc(F)cc3)nccc12 [Example 149, 7-[N-(4-fluorobenzyl)-N-methyl]amino-1-isobutyl-2,3-dimethyl-1H-pyrrolo[2,3-c]pyridine hydrochloride] | 6.68
33 | CCCn1c(C)c(C)c2ccnc(N(C)Cc3ccc(F)cc3)c21 [Example 150, 7-[N-(4-fluorobenzyl)-N-methyl]amino-2,3-dimethyl-1-propyl-1H-pyrrolo[2,3-c]pyridine hydrochloride] | 6.47
34 | COc1cccc(Cn2c(C)c(C)c3ccnc(N(C)Cc4ccc(F)cc4)c32)c1 [Example 151, 7-[N-(4-fluorobenzyl)-N-methyl]amino-1-(3-methoxybenzyl)-2,3-dimethyl-1H-pyrrolo[2,3-c]pyridine hydrochloride] | 6.47
35 | Cc1ccc(Cn2c(C)c(C)c3ccnc(N(C)Cc4ccc(F)cc4)c32)cc1 [Example 152, 7-[N-(4-fluorobenzyl)-N-methyl]amino-2,3-dimethyl-1-(4-methylbenzyl)-1H-pyrrolo[2,3-c]pyridine hydrochloride] | 6.77
36 | Cc1c(C)n(Cc2ccc(F)cc2)c2c(N(C)Cc3ccc(F)cc3)nccc12 [Example 155, 1-(4-fluorobenzyl)-7-[N-(4-fluorobenzyl)-N-methyl]amino-2,3-dimethyl-1H-pyrrolo[2,3-c]pyridine hydrochloride] | 6.40
37 | COc1ccc(Cn2c(C)c(C)c3ccnc(N(C)Cc4ccc(F)cc4)c32)cc1 [Example 156, 7-[N-(4-fluorobenzyl)-N-methyl]amino-1-(4-methoxybenzyl)-2,3-dimethyl-1H-pyrrolo[2,3-c]pyridine hydrochloride] | 6.51
